Test results reported in patent US6043228A, “O^6 -substituted guanine derivatives, a process for their preparation and their use in treating tumor cells” (Cancer Research Campaign Technology Limited, priority 1993, dated 2000).

Columns and labels:
[1] = Sensitivity of mammalian cells to the inactivators alone: V79 cells; format: cell-based, Chinese hamster; conditions: hamster, v79 cells; FIG. 5; read-out: growth inhibitory dose in V79 cells relative to I50 dose
Protocol: (§1) In order to assess the effects on cell growth alone, Xeroderma pigmentosum cells and Chinese Hamster V79 cells were exposed to increasing concentrations (up to 600 μM) of selected inactivators for 2 h at 37°. In some cases, the inactivators were allowed to undergo hydrolysis at 37° C. for 20 hours and then added to Raji cells in order to assess the extent to which the decomposition products of the agents might inhibit cell growth. After 6 days the extent of cell growth was determined as described above.

[2] = tested on: Chinese Hamster V79 cells; test: as above; format: cell-based
Protocol: as §1

ATase = test: Inactivation of ATase in mammalian cells, summary over human, rat and Chinese hamster cell lines; format: cell-based; conditions: Table 5
Protocol: Mammalian cells were cultured under standard conditions. For example, Raji (a human lymphoblastoid cell line from a Burkitt's lymphoma) cells were grown in suspension culture in RPMI medium supplemented with 10% horse serum. […]
Cells were diluted to 10^6 /ml in culture medium containing either the appropriate concentration of inactivator or an equivalent volume of vehicle (DMSO). […] ATase activity was determined as described above, in duplicate sonicated cell extracts and expressed as the, percentage activity remaining based on that present in the untreated controls (for example 350-450 fm/mg in Raji cells).

[3] = Sensitivity of mammalian cells to the inactivators alone: XP cells; format: cell-based, human; conditions: human, xp cells; FIG. 6; read-out: dose required for growth inhibition relative to that required for ATase inactivation
Protocol: as §1

[4] = tested on: Xeroderma pigmentosum cells; test: as above; format: cell-based, human; conditions: inactivator alone (FIG. 6)
Protocol: as §1

recombinant human ATase = target: T1, recombinant human ATase (Homo sapiens, UniProt P16455); test: In vitro ATase inactivation assay (incubation with inactivators and ATase assay); format: biochemical; conditions: recombinant human ATase, standard conditions
T1 construct: made in house
T1 sequence (P16455 1-207): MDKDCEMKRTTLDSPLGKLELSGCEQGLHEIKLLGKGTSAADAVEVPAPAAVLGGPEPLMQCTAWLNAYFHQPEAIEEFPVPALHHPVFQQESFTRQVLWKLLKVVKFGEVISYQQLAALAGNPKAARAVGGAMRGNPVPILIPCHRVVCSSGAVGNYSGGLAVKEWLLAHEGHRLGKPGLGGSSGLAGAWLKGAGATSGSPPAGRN
Protocol: The cDNA cloning and overexpression of the human ATase has been reported previously^23. Purification of the recombinant proteins was achieved either by affinity chromatography through a DNA-cellulose column as described by Wilkinson et al.,^25, 26 or by DEAE-cellulose ion-exchange chromatography. For the latter, the ATase protein was partially purified by ammonium sulphate precipitation (30-60%) and dialysed against 10 mM Tris-HCl pH 7.5, 1 mM DTT, 2 mM EDTA, 10% glycerol, before loading on a DEAE-cellulose column. The ATase was then eluted with a 0-0.1 M NaCl gradient.
Compounds to be tested were dissolved in DMSO to a final concentration of 10 mM and diluted just before use in buffer I containing 1 mg/ml bovine serum albumin (IBSA). Recombinant ATase was diluted in IBSA and titrated in order that the reaction be conducted under ATase, and not substrate, limiting conditions. […] Following acid hydrolysis of the DNA as previously described^21 the [^3 H]-methylated protein was recovered and quantitated by liquid scintillation counting. Samples were typically assayed in duplicate and experiments repeated several times. I50 is the concentration of inactivator required to produce a 50% reduction in ATase activity.

In the case of `Nc1nc(OCc2ccco2)c2nc[nH]c2n1` [B.4203, 0^6 -furfurylguanine], the selectivity ratio [1] is reported as ≥ 100, the “toxic concentration in V79 cells relative to concentration sensitizing to BCNU” value ([2]; FIGS. 5 & 6) is reported as “at least 100 times” and the “dose producing some growth inhibition of V79 cells” value ([2]; inactivator alone, 2 h (FIG. 5)) is reported as > 100 µM. For the same compound, the “growth inhibition / toxicity to V79 cells, in words” value ([2]; inactivator alone, up to 600 μM) was “toxic”, the “effectiveness relative to BeG in the cell lines used” value (ATase) was “up to 7 times” and the selectivity ratio [3] was ≥ 100. The “growth inhibition / toxicity to XP cells, in words” value [4] was “toxic” and the “ATase inactivation in vitro, result in words” value (recombinant human ATase) was “not as effective as BeG”.
